Where two headings read alike, the source gives them in different places.
Legend:
PC-3 cells = assay: MTT cell growth inhibition, PC-3
LNCaP cells = assay: MTT cell growth inhibition, LNCaP;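 further: MTT formazan absorbance at 600 nm read after 72 h of compound exposure, IC50 fitted by nonlinear regression of dose-response curves, samples run in triplicate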
22Rv1 cells = assay: MTT cell growth inhibition, 22Rv1; conditions: MTT
Experimental: (§1) MDA PCa 2b was seeded at the same density in medium BRFF-HPC1 (Athena Enzyme Systems, Baltimore, Md., USA) supplemented with 20% FBS. After overnight incubation, the medium was changed to a fresh medium containing different concentrations of test compounds diluted from stock DMSO solution. The final concentration of DMSO is 0.5%. After 72 h of incubation with test compounds, 20 μL of 3-(4,5-dimethyl thiazol-2-yl)-2,5-diphenyltetrazolium bromide (MTT) solution (5 mg/mL in PBS) were added to each well and incubated further for 2 h. Next, the supernatant was aspirated and the MTT formazan formed by metabolically viable cells was dissolved in 100 μL of isopropanol. The plates were mixed for 30 min, and the absorbance was measured at 600 nm on a plate reader (FLUOstar OPTIMA, BMG LabTech). All samples were in triplicate. The IC50 values were determined from dose-response curves by nonlinear regression using PRISM v5.00 (GraphPad Software Inc, La Jolla, Calif., USA).
(§2) The in vitro cytotoxicity of 1-20 were evaluated by MTT assays in a panel of prostate cancer cell lines, including LNCaP, MDA PCa 2b, 22Rv1, C4-2B and PC-3.

C4-2B cells = assay: MTT cell growth inhibition, C4-2B;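 further: cells treated with a dilution series for 72 h, then MTT added and absorbance read at 600 nm, IC50 fitted from dose-response curves by nonlinear regression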
Experimental: as §1, §2

[1] = read-out: IC50 (μM) PC-3, Table 1, 72 h, maximum tested concentration 50 μM
[2] = read-out: IC50 (μM) LNCaP, Table 1, 72 h
[3] = read-out: IC50 (μM) 22Rv1, Table 1, 72 h
[4] = read-out: IC50 (μM) C4-2B, Table 1, 72 h
[5] = read-out: Cellular IC50 (μM) PC-3, Table 9
[6] = read-out: Cellular IC50 (μM) LNCaP, Table 9
[7] = read-out: Cellular IC50 (μM) 22Rv1, Table 9
[8] = read-out: Cellular IC50 (μM) C4-2B, Table 9
[9] = read-out: Cellular IC50 (μM) PC3, Table 8
[10] = read-out: Cellular IC50 (μM) LNCaP, Table 8
[11] = read-out: Cellular IC50 (μM) 22Rv1, Table 8
[12] = read-out: Cellular IC50 (μM) C4-2B, Table 8
[13] = read-out: Cellular IC50 (μM) PC-3, Table 2, 72 h, max tested 50 μM (β-ionone 150 μM)
[14] = read-out: Cellular IC50 (μM) LNCaP, Table 2, 72 h
[15] = read-out: Cellular IC50 (μM) 22Rv1, Table 2, 72 h
[16] = read-out: Cellular IC50 (μM) C4-2B, Table 2, 72 h

SMILES	IC50 (PC-3 cells; [5]) [µM]	IC50 (LNCaP cells; [6]) [µM]	IC50 (22Rv1 cells; [7]) [µM]	IC50 (C4-2B cells; [8]) [µM]	IC50 (PC-3 cells; [9]) [µM]	IC50 (LNCaP cells; [10]) [µM]	IC50 (22Rv1 cells; [11]) [µM]	IC50 (C4-2B cells; [12]) [µM]	also measured
CC1=C(/C=C/C(=O)/C=C(O)/C=C/c2ccc(O)cc2)C(C)(C)CCC1 [Compound 5]	–	–	–	–	–	–	–	–	IC50 (PC-3 cells; [1]): 50.6 µM; IC50 (LNCaP cells; [2]): 18.6 µM; IC50 (22Rv1 cells; [3]): 12.6 µM; IC50 (C4-2B cells; [4]): 5.7 µM
CC1(C)CCC(O)C=C1/C=C/C(=O)/C=C/c1ccc2[nH]ccc2c1 (stereo not drawn) [Compound B89]	3.1	1.5	2.3	1.6	–	–	–	–	–
CC1(C)CCC(O)C=C1/C=C/C(=O)/C=C/c1cccc2cc[nH]c12 (stereo not drawn) [Compound B90]	2.1	1.4	2.1	1.7	–	–	–	–	–
CC1(C)CCC(O)C=C1/C=C/C(=O)/C=C/c1c[nH]c2ccccc12 (stereo not drawn) [Compound B81]	15.2	4.6	9.1	2.3	–	–	–	–	–
CC1=C(/C=C/C(=O)/C=C/c2ccc(N3CCCCC3)cc2)C(C)(C)CCC1O (stereo not drawn) [Compound B59]	–	–	–	–	22.5	17.8	31.2	19.7	–
COc1ccc(/C=C/C(=O)/C(=C/c2ccc(OC)nc2)C(=O)/C=C/C2=C(C)CCCC2(C)C)cn1 [Compound 17]	–	–	–	–	–	–	–	–	IC50 (PC-3 cells; [13]): 31 µM; IC50 (LNCaP cells; [14]): 15.7 µM; IC50 (22Rv1 cells; [15]): 9.9 µM; IC50 (C4-2B cells; [16]): 12.2 µM
CC1=C(/C=C/C(=O)/C=C/c2ccc(C)cc2)C(C)(C)CCC1O (stereo not drawn) [Compound B51]	–	–	–	–	18.6	11.5	12.3	5.9	–
Cn1cc(/C=C/C(=O)/C=C/C2=CC(O)CCC2(C)C)c2ccccc21 (stereo not drawn) [Compound B88]	54.9	9.4	21	11.8	–	–	–	–	–
CC1(C)CCC(O)C=C1/C=C/C(=O)/C=C/c1cc2ccccc2s1 (stereo not drawn) [Compound B93]	23.8	12.9	17.6	9.9	–	–	–	–	–
COc1cc(/C=C/C(=O)/C=C/C2=C(C)C(O)CCC2(C)C)c(OCc2ccccc2)cc1OC (stereo not drawn) [Compound B75]	–	–	–	–	25.4	16.7	19.2	23.3	–
COc1ccc(/C=C/C(=O)/C=C/C2=C(C)C(O)CCC2(C)C)cc1O (stereo not drawn) [Compound B69]	–	–	–	–	53.9	12.3	19.1	12	–
CC1(C)CCC(O)C=C1/C=C/C(=O)/C=C/c1ccc2c(c1)OCO2 (stereo not drawn) [Compound B76]	25.8	11.2	20.1	6.2	–	–	–	–	–
COc1cc(OC)c(OC)cc1/C=C/C(=O)/C=C/C1=C(C)C(O)CCC1(C)C (stereo not drawn) [Compound B73]	–	–	–	–	9.5	3.7	5.4	3.2	–
COc1cc(/C=C/C(O)=C/C(=O)/C=C/C2=C(C)CCCC2(C)C)cc(OC)c1OC [Compound 7]	–	–	–	–	–	–	–	–	IC50 (PC-3 cells; [1]): > 50 µM; IC50 (LNCaP cells; [2]): 21.4 µM; IC50 (22Rv1 cells; [3]): 17.1 µM; IC50 (C4-2B cells; [4]): 11.9 µM
CC1=C(/C=C/C(=O)/C=C/c2ccc(-c3cncnc3)cc2)C(C)(C)CCC1O (stereo not drawn) [Compound B58]	–	–	–	–	4.3	1.5	3.8	2.1	–
CC1(C)CCC(O)C=C1/C=C/C(=O)/C=C/c1ccc2ccccc2n1 (stereo not drawn) [Compound B94]	5.5	2	2.7	1.5	–	–	–	–	–
COc1ccccc1/C=C/C(=O)/C=C/C1=C(C)C(O)CCC1(C)C (stereo not drawn) [Compound B65]	–	–	–	–	7.1	1.9	4.6	2.6	–
CC1(C)CCC(O)C=C1/C=C/C(=O)/C=C/c1c[nH]c2ccc(Br)cc12 (stereo not drawn) [Compound B85]	5.8	2.2	4	4.8	–	–	–	–	–

SMILES	IC50 (PC-3 cells; [5]) [µM]	IC50 (LNCaP cells; [6]) [µM]	IC50 (22Rv1 cells; [7]) [µM]	IC50 (C4-2B cells; [8]) [µM]	IC50 (PC-3 cells; [9]) [µM]	IC50 (LNCaP cells; [10]) [µM]	IC50 (22Rv1 cells; [11]) [µM]	IC50 (C4-2B cells; [12]) [µM]	also measured
CC1=C(/C=C/C(=O)/C=C/c2cc(F)ccc2F)C(C)(C)CCC1O (stereo not drawn) [Compound B66]	–	–	–	–	7.2	3.5	4.5	6.9	–
COc1cc(/C=C/C(O)=C/C(=O)/C=C/C2=C(C)CCCC2(C)C)cc(OC)c1O [Compound 6]	–	–	–	–	–	–	–	–	IC50 (PC-3 cells; [1]): 26.7 µM; IC50 (LNCaP cells; [2]): 6.2 µM; IC50 (22Rv1 cells; [3]): 12.2 µM; IC50 (C4-2B cells; [4]): 9.8 µM
COc1cc(C=CC(=O)C(=Cc2cc(OC)c(OC)c(OC)c2)C(=O)C=CC2=C(C)CCCC2(C)C)cc(OC)c1OC [Compound 16]	–	–	–	–	–	–	–	–	IC50 (PC-3 cells; [13]): 5.9 µM; IC50 (LNCaP cells; [14]): 3.4 µM; IC50 (22Rv1 cells; [15]): 1.5 µM; IC50 (C4-2B cells; [16]): 2.2 µM
CC1(C)CCC(O)C=C1/C=C/C(=O)/C=C/c1c[nH]c2ccc(Cl)cc12 (stereo not drawn) [Compound B84]	24.5	17.8	14.3	18.2	–	–	–	–	–
COc1ccc(C=CC(=O)C(=Cc2ccc(OC)c(OC)c2)C(=O)C=CC2=C(C)CCCC2(C)C)cc1OC [Compound 12]	–	–	–	–	–	–	–	–	IC50 (PC-3 cells; [13]): 34.3 µM; IC50 (LNCaP cells; [14]): 15.9 µM; IC50 (22Rv1 cells; [15]): 49.7 µM; IC50 (C4-2B cells; [16]): 54.4 µM
COc1cc(/C=C/C(=O)/C=C/C2=C(C)C(O)CCC2(C)C)cc(OC)c1OC (stereo not drawn) [Compound B72]	–	–	–	–	4.9	1.8	3	1.7	–
CC1(C)CCC(O)C=C1/C=C/C(=O)/C=C/c1ccc2c(c1)CCO2 (stereo not drawn) [Compound B79]	14.8	4.7	10.4	5.6	–	–	–	–	–
CC1(C)CCC(O)C=C1/C=C/C(=O)/C=C/c1c(-c2ccccc2)[nH]c2ccccc12 (stereo not drawn) [Compound B87]	13.7	3.2	12.6	2.2	–	–	–	–	–
COc1ccc(/C=C/C(=O)/C=C/C2=C(C)C(O)CCC2(C)C)cc1 (stereo not drawn) [Compound B53]	–	–	–	–	–	13.3	20.3	10.3	Cellular IC50 (μM) PC3 (PC-3 cells; Table 8): Int
COc1ccc(C=CC(=O)C(=Cc2ccc(OC)c(O)c2)C(=O)C=CC2=C(C)CCCC2(C)C)cc1O [Compound 11]	–	–	–	–	–	–	–	–	IC50 (PC-3 cells; [13]): 29.2 µM; IC50 (LNCaP cells; [14]): 7.3 µM; IC50 (22Rv1 cells; [15]): 5.2 µM; IC50 (C4-2B cells; [16]): 4.5 µM
CCn1c2ccccc2c2cc(/C=C(\C(=O)/C=C/C3=C(C)CCCC3(C)C)C(=O)/C=C/c3ccc4c(c3)c3ccccc3n4CC)ccc21 [Compound 18]	–	–	–	–	–	–	–	–	Cellular IC50 (μM) PC-3 (PC-3 cells; Table 2, 72 h, max tested 50 μM (β-ionone 150 μM)): Inactive^c; IC50 (LNCaP cells; [14]): 11.8 µM; IC50 (22Rv1 cells; [15]): 31.6 µM; IC50 (C4-2B cells; [16]): 28.5 µM
CC1=C(/C=C/C(=O)/C=C/c2ccc(OC(F)(F)C(F)F)cc2)C(C)(C)CCC1O (stereo not drawn) [Compound B55]	–	–	–	–	12.3	5.4	7.7	4.6	–
CC1=C(/C=C/C(=O)/C=C/c2ccc(Oc3ccccc3)cc2)C(C)(C)CCC1O (stereo not drawn) [Compound B56]	–	–	–	–	11.5	10.4	10.4	7.5	–
CC1=C(/C=C/C(=O)/C=C/c2ccc(F)cc2F)C(C)(C)CCC1O (stereo not drawn) [Compound B67]	–	–	–	–	7.5	4.3	4.8	2.1	–
CC1=C(/C=C/C(=O)/C=C/c2cccc(OCc3ccccc3)c2)C(C)(C)CCC1O (stereo not drawn) [Compound B49]	–	–	–	–	8	5	5.4	2.6	–
COc1cc(/C=C/C(O)=C/C(=O)/C=C/C2=C(C)CCCC2(C)C)ccc1O [Compound 1]	–	–	–	–	–	–	–	–	IC50 (PC-3 cells; [1]): 15.8 µM; IC50 (LNCaP cells; [2]): 20.6 µM; IC50 (22Rv1 cells; [3]): 10.6 µM; IC50 (C4-2B cells; [4]): 44.3 µM
CC1=C(/C=C/C(=O)/C=C/c2ccc(-c3ccccc3)cc2)C(C)(C)CCC1O (stereo not drawn) [Compound B57]	–	–	–	–	11.9	2.9	5.2	6	–
CC1(C)CCC(O)C=C1/C=C/C(=O)/C=C/c1ccc2c(c1)OCCO2 (stereo not drawn) [Compound B78]	23.2	10.8	19.3	10.3	–	–	–	–	–

— patent US8470889B2 (TRT Pharma Inc., priority 2008, dated 2013)
